Where two headings read alike, the source gives them in different places.

Data set [1] concerns Plasmodium falciparum, Indochina clone W2. Nature of the data set: microbe, parasite or virus in culture. The conditions noted are these: for Molar Index: Indochina clone, equimolar activity of 5-fluoroorotate relative to the conventional drug; for IC50: Plasmodium falciparum. The method, then:
In the antimalarial experiment with parasites, incorporation of radioactivity from [G-^3 H]-hypoxanthine into nucleic acids served as a measure of parasite proliferation. […] Each data point represents an average of two determinations. In the study of toxicity to human cells, proliferation of cells was determined directly by measuring the number of viable cells per well. […] Each data point represents an average of two determinations. 5-fluoro-orotate (.circle-solid.), 5-fluorouracil (.box-solid.), 5-fluorouridine (.tangle-solidup.), and 5-fluoro-2'-deoxyuridine (.diamond-solid.).
(§1) Half shaded symbols represent overlapping data points.
(§2) 3. Effects of pyrimidine analogues alone or in combination with normal pyrimidine bases or nucleosides or with amino acid derivatives can be tested in malaria parasite-infected erythrocytes. Varying concentrations of pyrimidine analogues in culture medium are added to individual wells of microtitre plates [Desjardins, R. E. et al., Antimicrob. […] Parasitemic erythrocytes in culture medium are added to each well. […] As an alternative to adding a radioactive precursor of nucleic acid biosynthesis, the end point for determining the effects of added drugs can be the incorporation of a radioactive amino acid, e.g., [U-^14 C]-isoleucine, into parasite protein.
Fluoropyrimidines, dispersed in 25 μl of culture medium, were added to individual wells of a 96-well microtitre plate. […] Finally, the incorporation of 0.5 μCi of [G-^3 H]hypoxanthine (1 Ci/mmol) into nucleic acids in each well was determined; this served as a measure of parasite proliferation.

Data set [2] relates to Plasmodium falciparum, Sierra Leone clone D6. Nature of the data set: Inhibition of P. falciparum proliferation, [G-3H]-hypoxanthine incorporation, Sierra Leone clone D6 (chloroquine-sensitive). The conditions noted are these: Sierra Leone clone; for IC50: Plasmodium falciparum, D6, Table 1, mean ± S.D. of five independent drug response curves; for Molar Index: equimolar activity of 5-fluoroorotate relative to the conventional drug. The class given is cell-based. The method, then:
as §2
Fluoropyrimidines, dispersed in 25 μl of culture medium, were added to individual wells of a 96-well microtitre plate. […] Finally, the incorporation of 0.5 μCi of [G-^3 H]hypoxanthine (1 Ci/mmol) into nucleic acids in each well was determined; this served as a measure of parasite proliferation. […] In a second method, the increase in parasitemia was determined directly by smearing infected erythrocytes on microscope slides, staining with Giemsa stain, and determining the ratio of infected to non-infected erythrocytes. In a third method, parasite-infected erythrocytes were incubated with [U-^14 C]-isoleucine (0.5 μCi; 0.33 Ci/mmol), and the amount of radioactivity incorporated into precipitable proteins determined.

For data set [3] the following is noted: cited from earlier work.
A further data set has as its system P. yoelii. Nature of the data set: Anti-malarial activity in P. yoelii-infected mice. The class given is in vivo, P. yoelii in Swiss white mice. The conditions noted are these: experiment 2 control, 800 mg/kg uridine alone. The method, then:
FIG. 4 illustrates the effect of 5-fluoro-orotate treatment on blood parasitemia. Mice infected with P. yoelii on day 0 in experiments 1 and 2 were treated with (A) 0.2 mg/kg 5-fluoro-orotate, (B) 1 mg/kg, or (C) 5 mg/kg every 4 hours for three days. Control mice (.largecircle., .circle-solid., respectively), received no drug. Open symbols represent treatment without uridine (experiment 1: .smallcircle., .quadrature., .diamond., Δ), and filled symbols represent animals also treated with uridine (experiment 2: .circle-solid., .box-solid., .diamond-solid., .tangle-solidup.). Animals were treated with 5-fluoro-orotate on days 3 to 6. Animals were also treated with uridine in experiment 2 on days 3 to 9.
FIG. 5 illustrates the survival rate of mice infected with P. yoelii and treated with 5-fluoro-orotate, alone or in combination with uridine. Mice were treated with (A) 0.2 mg/kg 5-fluoro-orotate, (B) 1 mg/kg, or (C) 5 mg/kg. Control mice received no 5-fluoro-orotate (.largecircle., .circle-solid., respectively). Open symbols represent treatment without uridine (experiment 1: .largecircle., .quadrature., .diamond., Δ), and closed symbols represent animals also receiving uridine (experiment 2: .circle-solid., .box-solid., .diamond-solid., .tangle-solidup.).
A second in vivo test system can be used to determine if repeated administration of the pyrimidine analogue would have safe anti-malarial activity. In this test system, groups of animals are infected with malaria parasites. At a time when blood parasitemia is reached, the animals are injected with saline alone (control) or with various concentrations of one or more pyrimidine analogues alone or together with one or more rescuing pyrimidine bases or nucleosides at a single concentration, at intervals, over a period of several days. In order to determine the prophylactic effectiveness of the rescuing pyrimidine base or nucleoside, the animals are pretreated with such a base or nucleoside prior to the administration of the pyrimidine analogue. Anti-malarial activity of the treatments is estimated by determining blood parasitemia on the animals at appropriate times. The safety of the treatments is estimated by monitoring animals for weight loss and diarrhea, as these are early symptoms of pyrimidine analogue toxicity [Houghton, J. A., et al., Cancer Res., 39:2406-13 (1979)].
Swiss white mice (25-30 g) were divided into groups of five. On day 0, each mouse was infected by intraperitoneal injection of 10^5 erythrocytic forms of P. yoelii. Starting on day 3, when the blood parasitemia had reached between 5 and 12%, the mice were injected intraperitoneally every 4 hours for three consecutive days with 200 μl of various formulations. […]

Data set [4] relates to HT-1080 human fibrosarcoma cells. Nature of the data set: Toxicity to cultured HT-1080 cells, number of viable cells. The data set is classed as cell-based. The conditions noted are these: Homo sapiens, HT-1080, 48 h. The method, then:
Each data point represents an average of two determinations. […] Each data point represents an average of two determinations.
as §1
Toxicity of pyrimidine analogues to cultured human cells is determined as follows. Mammalian cells are seeded into culture plate wells, and growth medium is added. The following day, fresh culture medium containing the appropriate pyrimidine analogues is added to the wells, and the plates incubated for a period of time and at a temperature appropriate to the cell line and the experimental requirements. Thereafter, the number of cells in each well is determined. […] Cells that grow in suspension (e.g., HL-60 and L-1210 cells) are transferred to centrifuge tubes, pelleted at low speed, washed, and the viability determined as above.
HT-1080 cells were seeded into 6-well culture plates at a density of 50,000 cells per 9.6 cm^2 well. Each well contained 2.5 ml of growth medium. […] After 1 minute, the detached cells were suspended in 1.0 ml of EMEM and collected by centrifugation at 300×g for 3 minutes. […] The concentrations of viable cells were determined in a hemocytometer.

The next data set relates to thymidylate synthesis. The conditions noted are these: Heidelberger 1983; cited from earlier work.
Setting [5] is: text value (FIG. 1B), read-out: IC50.

Regarding `CCN(CC)CCCC(C)Nc1ccnc2cc(Cl)ccc12` (stereo not shown) [Chloroquine], the “Molar Index” value is 21 in data set [1] and 1.6 in data set [2]. Also, the IC50 (as a rule, the midpoint of a concentration-inhibition curve) in data set [1] (W2) was found to be 127 ± 23 nM; in data set [2], 9 ± 1.7 nM. Also, the “tolerability, oral” value in data set [3] (oral) is reported as “typically is well-tolerated”. In data set [3] (parenteral, children), the “safety, parenteral” value was “may cause cardiac arrhythmia and sudden death in children”.

On to `CCc1nc(N)nc(N)c1-c1ccc(Cl)cc1` [Pyrimethamine], for which the “Molar Index” value in data set [1] is listed as 19; in data set [2] it was 0.04. Moreover, the IC50 in data set [1] (W2) worked out at 111 ± 29 nM; in data set [2] (read-out: IC50), 0.24 ± 0.16 nM.

Turning to `O=c1ccn([C@@H]2O[C@H](CO)[C@@H](O)[C@H]2O)c(=O)[nH]1` [uridine, reference compound], the “mortality, uridine alone” value in the data set on P. yoelii is listed as “all succumbed to P. yoelii”.

Regarding `O=c1[nH]cc(F)c(=O)[nH]1` [5-fluoro-uracil, reference compound], the half-inhibitory concentration (IC50) in data set [1] (W2, 48 h) amounted to 12000 nM; in data set [4] (read-out: IC50 (50% inhibition)), 2000 nM.

For the compound `O=c1[nH]c(=O)n([C@H]2C[C@H](O)[C@@H](CO)O2)cc1F` [5-fluoro-2'-deoxyuridine, reference compound], the IC50 worked out at 100000 nM in data set [1] (W2, 48 h) and 10 nM in data set [4] (setting [5]).

As for `O=c1[nH]c(=O)n([C@@H]2O[C@H](CO)[C@@H](O)[C@H]2O)cc1F` [5-fluoro-uridine, reference compound], the IC50 in data set [1] (W2, 48 h) stood at 32000 nM; in data set [4] (setting [5]), 30 nM.

For `COc1ncnc(NS(=O)(=O)c2ccc(N)cc2)c1OC` [Sulfadoxine], the “Molar Index” value in data set [1] is reported as 4344; in data set [2], 13.5. For the same compound, the IC50 amounted to 25600 ± 7080 nM in data set [1] (W2) and 76.2 ± 13.2 nM in data set [2] (read-out: IC50).

As to `O=c1[nH]c(=O)n([C@H]2C[C@H](O)[C@@H](COP(=O)(O)O)O2)cc1F` [5-fluoro-2'-deoxy-uridylate], the “inhibition of thymidylate synthesis” value in the data set with thymidylate synthesis was “potent enzyme-activated inhibitor of thymidylate synthesis”.

The record behind these values is patent US6159953A, “Anti-malarial composition and method of use” (Catholic University of America, priority 1992, dated 2000).
